In patent US20060148714A1, “Therapeutic peptide-based constructs” (priority 1999, published 2006):
Marks after values point to notes of the source that are not given here. Where a SMILES comes first, the peptide text is derived from it. Where no end group is shown, it is not given here. [ ]: non-standard residue; d: D form. The star is where a group is joined. Benzoyl(4-Ph) = O=C(c1ccc(-c2ccccc2)cc1)*; Benzoyl(2-Ph) = O=C(c1ccccc1-c1ccccc1)*; d1Nal = N[C@H](Cc1cccc2ccccc12)C(=O)O

Assays:
[1] = tested on: E. coli (J5 and 0111 B4), Staphylococcus aureus and Candida albicans; experiment: Broth and/or radial diffusion antimicrobial assays; type: cell-based
From the text: Assays useful for testing a variety of biological activities of BPI protein products, including BPI-derived peptides, are described in co-owned U.S. Pat. Nos. 5,733,872; 5,763,567; 5,652,332; and 5,856,438 and corresponding PCT Publication Nos. WO 94/20532 (PCT/US94/02465) and WO 95/19372 (PCT/US94/10427) and U.S. Pat. No. 5,858,974 and corresponding PCT Publications Nos. WO 96/08509 (PCT/US95/09262) and WO 97/04008 (PCT/US96/03845), incorporated herein by reference. These activities include antimicrobial (including antibacterial and antifungal), LPS binding, LPS neutralization and additional assays of heparin binding as well as heparin neutralization.

[2] = tested on: Factor Xa neutralization by ATIII/heparin complexes; experiment: Chromostrate heparin anti-Factor Xa assay (heparin neutralization); type: biochemical; conditions: absorbance at 405 nm
Procedure: A Chromostrate™ assay was used to determine the effect of peptide-based constructs, including derivatized constructs, and the effect protamine sulfate (as a positive control) on Factor Xa neutralization by ATIII/heparin complexes. The assay was conducted using a Chromostrate™ heparin anti-Factor Xa assay kit (Organon Teknika Corp., Durham, N.C.). Heparin concentration was varied so that a heparin standard curve was generated. The assay measured the potentiating effect of heparin on anti-Xa activity in vitro. Solution containing heparin is incubated in the presence of ATIII with an excess of Factor Xa, forming an ATIII-Heparin-Xa complex. The remaining Xa catalyzes the release of p-nitroaniline (pNA) from the chromogenic substrate. The release of p-nitroaniline is measured at 405 nm. The absorbance obtained in inversely porportional to the concentration of heparin in the sample.
Reagents for the assay are prepared as follows. Heparin, peptide-based constructs and protamine sulfate stocks are made in saline. Stock solutions are approximately 1 mg/mL=1 μg/μL. Factor Xa reagent and substrate reagent are reconstituted with 2.0 mL purified water. Antithrombin III (ATIII) reagent is reconstituted with 1.0 mL purified water. The assay is performed in 96 well microtiter plates. Assay components are added to the microtiter wells as follows: 12.5 μl of heparin (from 0 to 10 U/mL), 25 μl of construct or protamine sulfate, 12.5 μL of ATIII (0.5 PEU/mL), 25 μL of bovine Factor Xa (14 nKat/mL), 25 μL substrate (3 μmoles/mL). The reaction is allowed to proceed for 20 minutes and then 25 μL of 0.1 M acetic acid is added. The color reaction is quantitated on a microplate reader at 405 nm. Constructs that neutralize heparin show an increase in the absorbance at 405 nm. Protamine is used as a positive control and its activity is designated as 100%. The percent (%) heparin neutralization for each peptide construct is calculated relative to the neutralization by protamine (100%), and shown in Table IV.

Molecule: 4-biphenylcarbonyl-k-l-f-r-(naph-a)-q-a-k ({Benzoyl(4-Ph)}-[dK][dL][dF][dR][dNal][dQ][dA][dK]; not fully specified; printed as 4-biphenylcarbonyl-k-l-f-r-(naph-a)-q-a-k) [XMP.664]
- antimicrobial activity [1]: highest activities
- Assay A: percent heparin neutralization relative to protamine (100%) [2]: 50%
- Assay B: percent heparin neutralization relative to protamine (100%) [2]: 16%

Molecule: k-l-f-r-(biphenyl-A)-q-a-k [XMP.685]
- Assay A: percent heparin neutralization relative to protamine (100%) [2]: 3.4%
- Assay B: percent heparin neutralization relative to protamine (100%) [2]: 0.2%

Molecule: k-a-f-r-(naph-a)-q-a-k-(naph-a) ([dK][dA][dF][dR][dNal][dQ][dA][dK][dNal]; not fully specified; printed as k-a-f-r-(naph-a)-q-a-k-(naph-a)) [XMP.760]
- antimicrobial activity [1]: highest antimicrobial activities
- Assay A: percent heparin neutralization relative to protamine (100%) [2]: 53%
- Assay B: percent heparin neutralization relative to protamine (100%) [2]: 44%

Molecule: k-l-f-k-(naph-a)-q-a-k-(naph-a) ([dK][dL][dF][dK][dNal][dQ][dA][dK][dNal]; not fully specified; printed as k-l-f-k-(naph-a)-q-a-k-(naph-a)) [XMP.776]
- antimicrobial activity [1]: highest antimicrobial activities
- Assay A: percent heparin neutralization relative to protamine (100%) [2]: 74%
- Assay B: percent heparin neutralization relative to protamine (100%) [2]: 75%

Molecule: CC(C)C[C@@H](NC(=O)[C@@H](CCCCN)NC(=O)c1ccccc1-c1ccccc1)C(=O)N[C@H](Cc1ccccc1)C(=O)N[C@H](CCCNC(=N)N)C(=O)N[C@H](Cc1cccc2ccccc12)C(=O)N[C@H](CCC(N)=O)C(=O)N[C@H](C)C(=O)N[C@H](CCCCN)C(N)=O [XMP.661, 2-biphenylcarbonyl-k-l-f-r-(naph-a)-q-a-k] ({Benzoyl(2-Ph)}-[dK][dL][dF][dR][d1Nal][dQ][dA][dK]-NH2)
- Assay A: percent heparin neutralization relative to protamine (100%) [2]: 30%
- Assay B: percent heparin neutralization relative to protamine (100%) [2]: 9%

Molecule: 4-biphenylcarbonyl-k-l-f-k-(biphenyl-a)-q-a-k [XMP.769]
- Assay A: percent heparin neutralization relative to protamine (100%) [2]: 64%
- Assay B: percent heparin neutralization relative to protamine (100%) [2]: 46%

Molecule: 1-naphthylacetyl-k-l-f-r-(naph-a)-q-a-k ({1‑naphthylacetyl}-[dK][dL][dF][dR][dNal][dQ][dA][dK]; not fully specified; printed as 1-naphthylacetyl-k-l-f-r-(naph-a)-q-a-k) [XMP.671]
- Assay A: percent heparin neutralization relative to protamine (100%) [2]: 32%
- Assay B: percent heparin neutralization relative to protamine (100%) [2]: 15%

Molecule: 4-biphenylcarbonyl-k-l-f-r-(biphenyl-a)-q-a-k [XMP.768]
- Assay A: percent heparin neutralization relative to protamine (100%) [2]: 34%
- Assay B: percent heparin neutralization relative to protamine (100%) [2]: 10%

Molecule: k-a-f-k-(naph-a)-q-a-k-(naph-a)-k-G ([dK][dA][dF][dK][dNal][dQ][dA][dK][dNal][dK]G; not fully specified; printed as k-a-f-k-(naph-a)-q-a-k-(naph-a)-k-G) [XMP.764]
- antimicrobial activity [1]: highest antimicrobial activities
- Assay A: percent heparin neutralization relative to protamine (100%) [2]: 75%
- Assay B: percent heparin neutralization relative to protamine (100%) [2]: 60%

Molecule: k-l-f-r-(biphenyl-a)-q-a-k [XMP.725]
- Assay A: percent heparin neutralization relative to protamine (100%) [2]: 3.8%
- Assay B: percent heparin neutralization relative to protamine (100%) [2]: 1.0%

Molecule: 4-biphenylcarbonyl-k-l-f-k-(naph-a)-q-a-k ({Benzoyl(4-Ph)}-[dK][dL][dF][dK][dNal][dQ][dA][dK]; not fully specified; printed as 4-biphenylcarbonyl-k-l-f-k-(naph-a)-q-a-k) [XMP.767]
- antimicrobial activity [1]: highest activities
- Assay A: percent heparin neutralization relative to protamine (100%) [2]: 63%*
- Assay B: percent heparin neutralization relative to protamine (100%) [2]: 58%

Molecule: k-l-f-k-(biphenyl-a)-q-a-k-(biphenyl-a)-k-G [XMP.728]
- Assay A: percent heparin neutralization relative to protamine (100%) [2]: 106%
- Assay B: percent heparin neutralization relative to protamine (100%) [2]: 87%
